Data published in patent US12377071B2, “Methods of treating conditions related to the S1P1 receptor” (Arena Pharmaceuticals, Inc., priority 2015, dated 2025).

What was measured:
[1] = clinical trials; cited from earlier work
subjects = test: Phase 1 single dose study: safety and tolerability
Description: A phase 1 study with Compound 1 was conducted with single dosing at 0.1 mg, 0.35 mg, 1 mg, 3 mg, and 5 mg. Compound 1 was administered as the L-arginine salt.

[2] = system: peripheral blood lymphocyte (PBL) counts; test: Phase 1 single dose study: peripheral blood lymphocyte counts; assay type: in vivo, human
Description: Compound 1 was administered as the L-arginine salt.

male Sprague-Dawley rats = settings: cited from earlier work

SMILES	Adverse event [1]	Vital signs, ECGs, pulmonary function tests, ophthalmoscopy, clinical laboratory tests (subjects; in vivo)	Maximum tolerated dose (subjects; single dosing)	Deaths or serious adverse events (subjects; single dosing 0.1 to 5 mg)	Persistence of PBL nadir ([2]; single dose)	Time after dosing by which total PBL counts were reduced ([2]; single dose)	Time of PBL nadir ([2]; single dose)	PBL counts reduced by ([2]; single dose 3 mg)	PBL counts reduced by ([2]; single dose 5 mg)	Recovery of PBL counts to baseline ([2]; single dose, after the nadir)	Absolute number of peripheral blood B cells, T cells, NK cells, and all T cell subsets except TEM cells ([2]; single dosing at 3 and 5 mg)	Bradycardia (male Sprague-Dawley rats)
CCCCCCCCc1ccc(CCC(N)(CO)CO)cc1 [FTY720, fingolimod]	transient asymptomatic bradycardia	–	–	–	–	–	–	–	–	–	–	–
O=C(O)C[C@H]1CCc2c1[nH]c1ccc(OCc3ccc(C4CCCC4)c(C(F)(F)F)c3)cc21 [Compound 1, (R)-2-(7-(4-cyclopentyl-3-(trifluoromethyl)benzyloxy)-1,2,3,4-tetrahydrocyclopenta [b]indol-3-yl)acetic acid]	–	no other clinically significant safety issues	3 mg	no deaths or serious adverse events	24 h	2 to 4 h	≤ 8 h	~40%	~55%	4 days	dose responsive decline	no or substantially no bradycardia
